Assay results from PubChem BioAssay (NCI).
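At the GI50, growth is halved. TGI: total growth inhibition.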

How the values were obtained:
Assay in all cases: growth of human tumour cells (NCI), 384-well format
NCI/ADR-RES ovarian = tested on: NCI/ADR-RES ovarian
IGROV1 ovarian = tested on: IGROV1 ovarian
OVCAR-8 ovarian = tested on: OVCAR-8 ovarian
HCC-2998 colon = tested on: HCC-2998 colon
OVCAR-4 ovarian = tested on: OVCAR-4 ovarian
SK-MEL-2 melanoma = tested on: SK-MEL-2 melanoma
ACHN renal = tested on: ACHN renal
MDA-MB-231 breast = tested on: MDA-MB-231 breast
CAKI-1 renal = tested on: CAKI-1 renal
NCI-H23 lung = tested on: NCI-H23 lung
DU-145 prostate = tested on: DU-145 prostate
PC-3 prostate = tested on: PC-3 prostate
LOX IMVI melanoma = tested on: LOX IMVI melanoma
TK-10 renal = tested on: TK-10 renal
MCF7 breast = tested on: MCF7 breast
UACC-62 melanoma = tested on: UACC-62 melanoma
HT29 colon = tested on: HT29 colon
RXF 393 renal = tested on: RXF 393 renal
COLO 205 colon = tested on: COLO 205 colon
T-47D breast = tested on: T-47D breast
UACC-257 melanoma = tested on: UACC-257 melanoma
K-562 leukemia = tested on: K-562 leukemia
SF-295 CNS = tested on: SF-295 CNS
HCT-15 colon = tested on: HCT-15 colon
SF-539 CNS = tested on: SF-539 CNS
RPMI-8226 leukemia = tested on: RPMI-8226 leukemia
NCI-H460 NSCLC = tested on: NCI-H460 NSCLC
KM12 colon = tested on: KM12 colon
BT-549 breast = tested on: BT-549 breast
HOP-92 NSCLC = tested on: HOP-92 NSCLC
HOP-62 NSCLC = tested on: HOP-62 NSCLC
SF-268 CNS = tested on: SF-268 CNS
MDA-MB-435 melanoma = tested on: MDA-MB-435 melanoma
NCI-H226 lung = tested on: NCI-H226 lung
OVCAR-3 ovarian = tested on: OVCAR-3 ovarian
SK-OV-3 ovarian = tested on: SK-OV-3 ovarian
SN12C renal = tested on: SN12C renal
SK-MEL-28 melanoma = tested on: SK-MEL-28 melanoma
A549 NSCLC = tested on: A549 NSCLC
M14 melanoma = tested on: M14 melanoma
U251 glioblastoma = tested on: U251 glioblastoma
OVCAR-5 ovarian = tested on: OVCAR-5 ovarian
MALME-3M melanoma = tested on: MALME-3M melanoma
SNB-19 CNS = tested on: SNB-19 CNS
HCT-116 colon = tested on: HCT-116 colon
786-0 renal = tested on: 786-0 renal
SK-MEL-5 melanoma = tested on: SK-MEL-5 melanoma
A498 renal = tested on: A498 renal
SW-620 colon = tested on: SW-620 colon
UO-31 renal = tested on: UO-31 renal

CC[C@@H]1c2c(C#N)ncn2-c2cnc(Nc3ccc(C(=O)NC4CCN(C5CCN(CC6CC6)CC5)CC4)cc3OC)nc2N1C1CCCC1
GI50 (NCI/ADR-RES ovarian): 1110 nM
TGI (NCI/ADR-RES ovarian): 2310 nM
GI50 (IGROV1 ovarian): 44.9 nM
TGI (IGROV1 ovarian): 1660 nM
GI50 (OVCAR-8 ovarian): 21.7 nM
TGI (OVCAR-8 ovarian): 41.8 nM
GI50 (HCC-2998 colon): 20.9 nM
TGI (HCC-2998 colon): 48.7 nM
GI50 (OVCAR-4 ovarian): 125 nM
TGI (OVCAR-4 ovarian): 273 nM
GI50 (SK-MEL-2 melanoma): 13.8 nM
TGI (SK-MEL-2 melanoma): 33.9 nM
GI50 (ACHN renal): 204 nM
TGI (ACHN renal): 767 nM
GI50 (MDA-MB-231 breast): 44.5 nM
TGI (MDA-MB-231 breast): 158 nM
GI50 (CAKI-1 renal): 137 nM
TGI (CAKI-1 renal): 280 nM
GI50 (NCI-H23 lung): 27.5 nM
TGI (NCI-H23 lung): 61.4 nM
GI50 (DU-145 prostate): 23.9 nM
TGI (DU-145 prostate): 53.8 nM
GI50 (PC-3 prostate): 53.8 nM
TGI (PC-3 prostate): 302 nM
GI50 (LOX IMVI melanoma): 28.3 nM
TGI (LOX IMVI melanoma): 59.6 nM
GI50 (TK-10 renal): 317 nM
TGI (TK-10 renal): 1740 nM
GI50 (MCF7 breast): 34.5 nM
TGI (MCF7 breast): 169 nM
GI50 (UACC-62 melanoma): 32.8 nM
TGI (UACC-62 melanoma): 95.5 nM
GI50 (HT29 colon): 22 nM
TGI (HT29 colon): 48.8 nM
GI50 (RXF 393 renal): 19.7 nM
TGI (RXF 393 renal): 43.3 nM
GI50 (COLO 205 colon): 19.8 nM
TGI (COLO 205 colon): 110 nM
GI50 (T-47D breast): 117 nM
TGI (T-47D breast): 241 nM
GI50 (UACC-257 melanoma): 78.5 nM
TGI (UACC-257 melanoma): 201 nM
GI50 (K-562 leukemia): 21.1 nM
TGI (K-562 leukemia): 43.8 nM
GI50 (SF-295 CNS): 75.7 nM
TGI (SF-295 CNS): 1480 nM
GI50 (HCT-15 colon): 137 nM
TGI (HCT-15 colon): 269 nM
GI50 (SF-539 CNS): 36.5 nM
TGI (SF-539 CNS): 106 nM
GI50 (RPMI-8226 leukemia): 13.9 nM
TGI (RPMI-8226 leukemia): 31.5 nM
GI50 (NCI-H460 NSCLC): 16.4 nM
TGI (NCI-H460 NSCLC): 35.1 nM
GI50 (KM12 colon): 23.9 nM
TGI (KM12 colon): 74.9 nM
GI50 (BT-549 breast): 54.2 nM
TGI (BT-549 breast): 228 nM
GI50 (HOP-92 NSCLC): 43.3 nM
TGI (HOP-92 NSCLC): 404 nM
GI50 (HOP-62 NSCLC): 28.6 nM
TGI (HOP-62 NSCLC): 76.6 nM
GI50 (SF-268 CNS): 25.1 nM
TGI (SF-268 CNS): 197 nM
GI50 (MDA-MB-435 melanoma): 15.7 nM
TGI (MDA-MB-435 melanoma): 38.6 nM
GI50 (NCI-H226 lung): 175 nM
TGI (NCI-H226 lung): 1310 nM
GI50 (OVCAR-3 ovarian): 15.7 nM
TGI (OVCAR-3 ovarian): 48.4 nM
GI50 (SK-OV-3 ovarian): 26.1 nM
TGI (SK-OV-3 ovarian): 87.5 nM
GI50 (SN12C renal): 103 nM
TGI (SN12C renal): 356 nM
GI50 (SK-MEL-28 melanoma): 60.1 nM
TGI (SK-MEL-28 melanoma): 182 nM
GI50 (A549 NSCLC): 41.7 nM
TGI (A549 NSCLC): 171 nM
GI50 (M14 melanoma): 30 nM
TGI (M14 melanoma): 81.9 nM
GI50 (U251 glioblastoma): 23.3 nM
TGI (U251 glioblastoma): 152 nM
GI50 (OVCAR-5 ovarian): 53 nM
TGI (OVCAR-5 ovarian): 204 nM
GI50 (MALME-3M melanoma): 134 nM
TGI (MALME-3M melanoma): 263 nM
GI50 (SNB-19 CNS): 38.7 nM
TGI (SNB-19 CNS): 269 nM
GI50 (HCT-116 colon): 21.4 nM
TGI (HCT-116 colon): 107 nM
GI50 ([…]-0 renal): 116 nM
TGI (786-0 renal): 241 nM
GI50 (SK-MEL-5 melanoma): 17.2 nM
TGI (SK-MEL-5 melanoma): 65.6 nM
GI50 (A498 renal): 123 nM
TGI (A498 renal): 254 nM
TGI (SW-620 colon): 44.8 nM
GI50 (UO-31 renal): 181 nM
TGI (UO-31 renal): 322 nM
